According to patent US12465590B2, “Oxalamido-substituted tricyclic inhibitors of hepatitis b virus” (priority 2019, dated 2025):

Test system: HBV
Assay: HBV inhibition assay in HepAD38 cells (extracellular HBV DNA by direct qPCR)
Assay type: cell-based, HBV genotype D subtype ayw
Details: 96 hours, read-out: HBV inh EC50
Description: HepAD38 cell line (Ladner et al., Antimicrob Agents Chemother, 1997, 41, 1715-20) was used for HBV inhibition assays. HepAD38 is a subclone, derived from hepatoblastoma cell line HepG2 (ATCC® Number: HB-8065), that expresses HBV genome (genotype D subtype ayw) under the transcriptional control of a tetracycline-responsive promoter in a TET-OFF system: addition of doxycycline, an antibiotic belonging to the class of tetracycline, suppresses HBV replication, while its removal switches on the process allowing HBV viral particles release in the cell supernatant. HepAD38 cell line is maintained in DMEM/F12, supplemented with 10% of fetal bovine serum, 1% of glutamine, 1% of penicillin/streptomycin, 0.4 mg/ml G418 and 0.3 ug/ml tetracycline. For the HBV inhibition assay, doxycycline-free medium is used in order to allow virion production.
HBV inhibition activity in vitro was performed in 96 multiwell plates. During the initial (primary) screening, compounds were first tested in triplicates at concentrations of 0.02 μM, 0.1 μM, 0.5 μM and 1 μM. For selected compounds, an 8-point dose-response curve was obtained using 1:2 serial dilutions (starting from 0.01 μM, 0.1 μM, 0.4 μM or 5 μM, depending on the degree of inhibition observed during the primary screening). From the dose-response curves, half maximal effective concentration (EC50) could be calculated (see also below).
In more detail, compounds—typically dissolved in DMSO stock solutions—were diluted to 2× the final desired concentration in 100 μl of the above medium (without doxycycline) and plated in three replicates in the 96-well plates.
Simultaneously, HepAD38 cells—extensively pre-washed in doxycycline-free medium in order to induce HBV production—were suspended at 2*10^4 cells in 100 μl of doxycycline-free medium and added to each well of the plate, to yield a final assay volume of 200 μl.
DMSO, used for stock solutions and compounds dilutions, was always present in the assays at a final concentration of 0.5%.
Plates were then incubated 96 hours at 37° C. and then subjected to cell viability assays and extracellular HBV quantification, in order to evaluate both the cytotoxic potential and the antiviral activity of compounds.
Cytotoxicity was assessed by a commercial fluorescence assay that measures the metabolic activity of cells, directly related to cell viability (Cell Titer Blue, Promega). For each compound, cytotoxicity was evaluated at the same concentration employed to evaluate its anti-HBV activity. Anti-HBV activity was evaluated by quantification of extracellular HBV DNA with direct qPCR. In particular, supernatant was collected and centrifuged for cell debris clarification, viral DNA was extracted from virions by addition of lysis buffer (1 mM 1,4-dithiothreitol, 0.2% sodium dodecyl sulphate) and incubated at 95° C. for 10 min. Samples were then diluted 1:40 and real time PCR amplification was performed with SYBR green assay (Power SYBR™ Green PCR Master Mix-Thermo Fisher Scientific) and specific HBV primer (HBV-DF:5′-[…]-3′ (SEQ ID No. 1), HBV-DR:5′-[…]-3′ (SEQ ID No. 2)).
Antiviral activity data for each compound are reported as EC50 value (see Table 1 legend). Excel and Graphpad Prism programs are typically used for data elaboration and EC50 calculation.

Which EC50 does the source give for `Cc1cc(NC(=O)c2c3c(cn2C)S(=O)(=O)NC2CN(C(=O)C(=O)N4CC(F)(F)C4)CCC2CO3)ccc1F` (racemic) [Example E70, Trans-7-(2-(3,3-difluoroazetidin-1-yl)-2-oxoacetyl)-N-(4-fluoro-3-methylphenyl)-2-methyl-5,5a,6,7,8,9,9a,10-octahydro-2H-pyrido[3,4-f]pyrrolo[3,4-b][1,4,5]oxathiazocine-1-carboxamide 4,4-dioxide] here?
Its EC50 is < 500 nM.

Which EC50 does the source give for `Cc1cc(NC(=O)c2c3c(cn2C)S(=O)(=O)NC2CCN(C(=O)C(=O)N[C@H](C)C(F)(F)F)CC2CO3)ccc1F` (mixture of isomers) [Example E72, Cis-N-(4-fluoro-3-methylphenyl)-2-methyl-8-(2-oxo-2-(((R)-1,1,1-trifluoropropan-2-yl)amino)acetyl)-5,5a,6,7,8,9,9a,10-octahydro-2H-pyrido[4,3-f]pyrrolo[3,4-b][1,4,5]oxathiazocine-1-carboxamide 4,4-dioxide] here?
Its EC50 is < 500 nM.

Same assay, conditions: Hepatitis B virus, 96 hours, read-out: HBV inh EC50

For `Cc1cc(NC(=O)c2c3c(cn2C)S(=O)(=O)NC2CCN(C(=O)C(=O)NCC(F)(F)F)CC2CO3)ccc1F` (racemic) [Example E57, Trans-N-(4-fluoro-3-methylphenyl)-2-methyl-8-(2-oxo-2-((2,2,2-trifluoroethyl)amino)acetyl)-5,5a,6,7,8,9,9a,10-octahydro-2H-pyrido[4,3-f]pyrrolo[3,4-b][1,4,5]oxathiazocine-1-carboxamide 4,4-dioxide], which EC50 is on record?
Its EC50 is < 500 nM.

With `Cc1cc(NC(=O)c2c3c(cn2C)S(=O)(=O)NC2CN(C(=O)C(=O)N4CC(F)(F)C4)CCC2CO3)ccc1F` (racemic) [Example E63, Cis-7-(2-(3,3-difluoroazetidin-1-yl)-2-oxoacetyl)-N-(4-fluoro-3-methylphenyl)-2-methyl-5,5a,6,7,8,9,9a,10-octahydro-2H-pyrido[3,4-f]pyrrolo[3,4-b][1,4,5]oxathiazocine-1-carboxamide 4,4-dioxide] as the molecule, how does the EC50 read?
The EC50 was < 500 nM.

For `Cc1cc(NC(=O)c2c3c(c(Br)n2C)S(=O)(=O)N[C@H]2CN(C(=O)C(=O)N[C@H](C)C(F)(F)F)C[C@H]2CO3)ccc1F` [Example E52, (3aR,10aR)-6-bromo-N-(4-fluoro-3-methylphenyl)-7-methyl-2-(2-oxo-2-(((R)-1,1,1-trifluoropropan-2-yl)amino)acetyl)-2,3,3a,4,10,10a-hexahydro-1H,7H-dipyrrolo[3,4-b:3′,4′-f][1,4,5]oxathiazocine-8-carboxamide 5,5-dioxide], which EC50 is on record?
Its EC50 is < 500 nM.

Which EC50 does the source give for `Cc1cc(NC(=O)c2c3c(cn2C)S(=O)(=O)NC2CCN(C(=O)C(=O)N4CC(F)(F)C4)CC2CO3)ccc1F` (racemic) [Example E55, Trans-8-(2-(3,3-difluoroazetidin-1-yl)-2-oxoacetyl)-N-(4-fluoro-3-methylphenyl)-2-methyl-5,5a,6,7,8,9,9a,10-octahydro-2H-pyrido[4,3-f]pyrrolo[3,4-b][1,4,5]oxathiazocine-1-carboxamide 4,4-dioxide] here?
The EC50 was < 500 nM.

For `Cc1cc(NC(=O)c2c3c(cn2C)S(=O)(=O)NC2CCN(C(=O)C(=O)NC4CC4)CC2CO3)ccc1F` (racemic) [Example E54, Trans-8-(2-(cyclopropylamino)-2-oxoacetyl)-N-(4-fluoro-3-methylphenyl)-2-methyl-5,5a,6,7,8,9,9a,10-octahydro-2H-pyrido[4,3-f]pyrrolo[3,4-b][1,4,5]oxathiazocine-1-carboxamide 4,4-dioxide], which EC50 is on record?
Its EC50 is < 500 nM.

With `Cc1cc(NC(=O)c2c3c(cn2C)S(=O)(=O)NC2CN(C(=O)C(=O)N[C@H](C)C(F)(F)F)CC2CO3)ccc1F` (stereo in doubt) [Example E30, trans-N-(4-fluoro-3-methylphenyl)-7-methyl-2-(2-oxo-2-(((R)-1,1,1-trifluoropropan-2-yl)amino)acetyl)-2,3,3a,4,10,10a-hexahydro-1H,7H-dipyrrolo[3,4-b:3′,4′-f][1,4,5]oxathiazocine-8-carboxamide 5,5-dioxide] as the molecule, how does the EC50 read?
Its EC50 is < 500 nM.

For `Cc1cc(NC(=O)c2c3c(cn2C)S(=O)(=O)NC2CN(C(=O)C(=O)N[C@H](C)C(F)(F)F)CC2(C)CO3)ccc1F` (stereo in doubt) [Example E26, Cis-N-(4-fluoro-3-methylphenyl)-7,10a-dimethyl-2-(2-oxo-2-(((R)-1,1,1-trifluoropropan-2-yl)amino)acetyl)-2,3,3a,4,10,10a-hexahydro-1H,7H-dipyrrolo[3,4-b:3′,4′-f][1,4,5]oxathiazocine-8-carboxamide 5,5-dioxide], which EC50 is on record?
Its EC50 is < 500 nM.

For `Cc1cc(NC(=O)c2c3c(cn2C)S(=O)(=O)NC2CN(C(=O)C(=O)NCC(F)(F)F)CCC2CO3)ccc1F` (racemic) [Example E61, Cis-N-(4-fluoro-3-methylphenyl)-2-methyl-7-(2-oxo-2-((2,2,2-trifluoroethyl)amino)acetyl)-5,5a,6,7,8,9,9a,10-octahydro-2H-pyrido[3,4-f]pyrrolo[3,4-b][1,4,5]oxathiazocine-1-carboxamide 4,4-dioxide], which EC50 is on record?
Its EC50 is < 500 nM.

Which EC50 does the source give for `Cc1cc(NC(=O)c2c3c(cn2C)S(=O)(=O)NC2CN(C(=O)C(=O)N[C@@H](C)C(F)(F)F)CCC2CO3)ccc1F` (mixture of isomers) [Example E65, Cis-N-(4-fluoro-3-methylphenyl)-2-methyl-7-(2-oxo-2-(((S)-1,1,1-trifluoropropan-2-yl)amino)acetyl)-5,5a,6,7,8,9,9a,10-octahydro-2H-pyrido[3,4-f]pyrrolo[3,4-b][1,4,5]oxathiazocine-1-carboxamide 4,4-dioxide] here?
Its EC50 is < 500 nM.

Test system: HBV
Assay: not given
Details: Phase 1b clinical studies; cited from earlier work

For `O=C(Nc1cc(F)c(F)c(F)c1)c1ccc(F)c(S(=O)(=O)N2CCC(O)CC2)c1` [NVR3-778], which “HBV DNA” value is on record?
The value was “significant reduction”.

What about the “serum HBV RNA” value of the same molecule?
The value was “significant reduction”.
